Assay results taken from patent US10584114B2, “Inhibitors of RET” (BLUEPRINT MEDICINES CORPORATION, priority 2015, dated 2020).

Legend:
RET V804L = RET V804L (Homo sapiens (Human), UniProt P07949, V804L); experiment: RET V804L Gatekeeper Mutant Assay at KM (Caliper electrophoretic mobility shift); format: biochemical; conditions: 10 μM ATP, 25° C., 120 minutes
wild type RET = wild type RET (Homo sapiens (Human), UniProt P07949); experiment: RET Wild Type Assay at KM (Caliper electrophoretic mobility shift); format: biochemical; conditions: 25 μM ATP, 25° C., 120 minutes
Sequence of wild type RET (P07949 658-1114): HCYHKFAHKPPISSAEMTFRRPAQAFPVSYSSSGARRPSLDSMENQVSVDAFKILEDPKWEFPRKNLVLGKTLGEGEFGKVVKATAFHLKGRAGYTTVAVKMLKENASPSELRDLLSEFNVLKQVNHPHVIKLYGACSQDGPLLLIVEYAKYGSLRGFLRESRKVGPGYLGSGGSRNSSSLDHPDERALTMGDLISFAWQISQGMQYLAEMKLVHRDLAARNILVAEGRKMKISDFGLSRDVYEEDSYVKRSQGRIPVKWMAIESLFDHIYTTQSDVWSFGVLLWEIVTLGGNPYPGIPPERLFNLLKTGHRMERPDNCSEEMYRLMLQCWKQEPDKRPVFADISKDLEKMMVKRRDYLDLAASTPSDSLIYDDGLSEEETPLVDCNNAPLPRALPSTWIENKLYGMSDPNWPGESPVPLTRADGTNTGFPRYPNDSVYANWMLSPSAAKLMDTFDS

Sequence of RET V804L (P07949 658-1114 V804L): as the sequence (P07949 658-1114) above, with V147L counted along it

## Cc1cc(Nc2cc(C)[nH]n2)nc([C@H]2CC[C@@H](C(=O)NCc3ccc(-n4cccn4)nc3)CC2)n1 [Compound 100]
RET V804L
  IC50: > 100 nM
Wild type RET
  IC50: > 100 nM

## Cc1cc(Nc2cc(C)[nH]n2)nc([C@H]2CC[C@H](C(=O)NCc3ccc(-n4cccn4)nc3)CC2)n1 [Compound 101]
RET V804L
  IC50: < 10 nM
Wild type RET
  IC50: < 10 nM

## Cc1cc(Nc2cc(C)[nH]n2)nc([C@H]2CC[C@@H](C(=O)N[C@@H](C)c3ccc(-n4cccn4)nc3)CC2)n1 [Compound 102]
RET V804L
  IC50: > 100 nM
Wild type RET
  IC50: > 100 nM

## Cc1cc(Nc2cc(C)[nH]n2)nc([C@H]2CC[C@H](C(=O)N[C@@H](C)c3ccc(-n4cccn4)nc3)CC2)n1 [Compound 103]
RET V804L
  IC50: < 10 nM
Wild type RET
  IC50: < 10 nM

## Cc1cc(Nc2cc(C)[nH]n2)nc([C@@H]2CC[C@@H](C(=O)NCc3ccc(-n4cccn4)nc3)[C@@H](C)C2)n1 [Compound 104]
RET V804L
  IC50: > 100 nM
Wild type RET
  IC50: > 100 nM

## Cc1cc(Nc2cc(C)[nH]n2)nc([C@H]2CC[C@H](C(=O)NCc3ccc(-n4nc(C)cc4C)nc3)CC2)n1 [Compound 106]
RET V804L
  IC50: 10 to 100 nM
Wild type RET
  IC50: < 10 nM

## Cc1cc(Nc2cc(C)[nH]n2)nc([C@@]2(O)CC[C@H](C(=O)NCc3ccc(-n4cccn4)nc3)[C@H](C)C2)c1 [Compound 107]
RET V804L
  IC50: < 10 nM
Wild type RET
  IC50: < 10 nM

## Cc1cc(Nc2cc(C)[nH]n2)nc([C@H]2CC[C@H](C(=O)NCc3ccc(-n4cc(Cl)cn4)nc3)CC2)n1 [Compound 113]
RET V804L
  IC50: < 10 nM
Wild type RET
  IC50: < 10 nM

## Cc1cc(Nc2cc(C)[nH]n2)nc([C@]2(O)CC[C@@H](C(=O)NCc3ccc(-n4cccn4)nc3)C(C)(C)C2)c1 [Compound 114]
RET V804L
  IC50: < 10 nM
Wild type RET
  IC50: < 10 nM

## Cc1cc(Nc2cc(C)[nH]n2)nc([C@@H]2CC[C@@H](C(=O)N[C@@H](C)c3ccc(-n4cc(F)cn4)nc3)[C@@H](C)C2)n1 [Compound 116]
RET V804L
  IC50: 10 to 100 nM
Wild type RET
  IC50: > 100 nM

## Cc1cc(Nc2cc(C)[nH]n2)nc([C@]2(O)CC[C@H](C(=O)N[C@@H](C)c3ccc(-n4cc(F)cn4)nc3)CC2)c1 [Compound 119]
RET V804L
  IC50: > 100 nM
Wild type RET
  IC50: > 100 nM

## Cc1cc(Nc2cc(C)[nH]n2)nc([C@]2(O)CC[C@@H](C(=O)N[C@@H](C)c3ccc(-n4cc(F)cn4)nc3)CC2)c1 [Compound 120, (1s,4R)—N—((S)-1-(6-(4-fluoro-1H-pyrazol-1-yl)pyridin-3-yl)ethyl)-4-hydroxy-4-(4-methyl-6-(5-methyl-1H-pyrazol-3-ylamino)pyridin-2-yl)cyclohexanecarboxamide]
RET V804L
  IC50: < 10 nM
Wild type RET
  IC50: < 10 nM

## Cc1cc(Nc2cc(C)[nH]n2)nc([C@@H]2CC[C@@H](C(=O)N[C@@H](C)c3ccc(-n4cc(F)cn4)nc3)C(C)(C)C2)n1 [Compound 124]
RET V804L
  IC50: 10 to 100 nM
Wild type RET
  IC50: > 100 nM

## CO[C@]1(C(=O)N[C@@H](C)c2cnc(-n3cc(F)cn3)cn2)CC[C@H](c2nc(C)cc(Nc3cc(C)[nH]n3)n2)CC1 [Compound 131]
RET V804L
  IC50: < 10 nM
Wild type RET
  IC50: < 10 nM

## CCO[C@]1(C(=O)N[C@@H](C)c2ccc(-n3cc(F)cn3)nc2)CC[C@H](c2nc(C)cc(Nc3cc(C)[nH]n3)n2)CC1 [Compound 136]
RET V804L
  IC50: < 10 nM
Wild type RET
  IC50: < 10 nM

## CO[C@]1(C(=O)N[C@@H](C)c2ccc(-n3cc(F)cn3)nc2)CC[C@](O)(c2cc(C)cc(Nc3cc(C)[nH]n3)n2)CC1 [Compound 137]
RET V804L
  IC50: > 100 nM
Wild type RET
  IC50: > 100 nM

## CO[C@]1(C(=O)N[C@@H](C)c2ccc(-n3cc(F)cn3)nc2)CC[C@@](O)(c2cc(C)cc(Nc3cc(C)[nH]n3)n2)CC1 [Compound 138]
RET V804L
  IC50: < 10 nM
Wild type RET
  IC50: < 10 nM

## Cc1cc(Nc2cc(C)[nH]n2)nc(C2=CCC(C(=O)N[C@@H](C)c3ccc(-n4cc(F)cn4)nc3)CC2)n1 (stereo partly shown) [Compound 144]
RET V804L
  IC50: < 10 nM
Wild type RET
  IC50: < 10 nM

## Cc1cc(Nc2cc(C)[nH]n2)nc([C@]2(O)CC[C@@H](C(=O)N[C@@H](C)c3ccc(-n4cc(F)cn4)nc3)OC2)c1 [Compound 146]
RET V804L
  IC50: < 10 nM
Wild type RET
  IC50: < 10 nM

## CO[C@]1(C(=O)NCc2cnc(-n3cc(F)cn3)cn2)CC[C@H](c2nc(C)cc(Nc3cc(C)[nH]n3)n2)CC1 [Compound 150]
RET V804L
  IC50: < 10 nM
Wild type RET
  IC50: < 10 nM
